Data from patent US12187746B2, “C26-linked rapamycin analogs as mTOR inhibitors” (Revolution Medicines, Inc., priority 2018, dated 2025).

How the values were obtained:
[1] = system: P-P70S6K (T389); experiment: Cell based AlphaLISA assay, inhibition of P-P70S6K (T389) in MDA-MB-468 cells; conditions: Homo sapiens, 4 h, 0.017-1,000 nM, two to four hours at 37° C., AlphaLisa SureFire Ultra, read-out: pIC50 for Inhibition of mTORC1 and mTORC2 Substrate Phosphorylation, p-P70S6K-(T389) (converted)
How it was run: (§1)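 mTORC1 and mTORC2 activity in cells tracked through AlphaLISA SureFire Ultra detection of the phosphoproteins after incubation and cell lysis; Alpha signal read in duplicate. IC50 from normalized concentration–response regression with control-based normalization.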

[2] = system: P-4E-BP1 (T37/46); experiment: Cell based AlphaLISA assay, inhibition of P-4E-BP1 (T37/46) in MDA-MB-468 cells; conditions: Homo sapiens, 4 h, 0.017-1,000 nM, two to four hours at 37° C., AlphaLisa SureFire Ultra, read-out: pIC50 for Inhibition of mTORC1 and mTORC2 Substrate Phosphorylation, p-4E-BP1-(T37/46) (converted)
How it was run: as §1

[3] = system: P-Akt (S473); experiment: Cell based AlphaLISA assay, inhibition of P-Akt (S473) in MDA-MB-468 cells; conditions: Homo sapiens, 4 h, 0.017-1,000 nM, two to four hours at 37° C., AlphaLisa SureFire Ultra, read-out: pIC50 for Inhibition of mTORC1 and mTORC2 Substrate Phosphorylation, p-AKT1/2/3-(S473) (converted)
How it was run: as §1

SMILES	IC50 [1]	IC50 [2]	IC50 [3]
CO[C@H]1C[C@@H]2CC[C@@H](C)[C@@](O)(O2)C(=O)C(=O)N2CCCC[C@H]2C(=O)O[C@H]([C@H](C)C[C@@H]2CC[C@@H](O)[C@H](OC)C2)C[C@@H](O)[C@H](C)/C=C(\C)[C@@H](O)[C@@H](OC)C(=NOCC(=O)NCc2cnc(N3CCN(C(=O)CCOCCN4CCN(c5ncc(C(=O)N6CCc7cc(Cn8nc(-c9cnc%10[nH]ccc%10c9)c9c(N)ncnc98)ccc7C6)cn5)CC4)CC3)nc2)[C@H](C)C[C@H](C)/C=C/C=C/C=C/1C [Example 31]	< 1 nM	3.16 to 31.6 nM	> 1000 nM
CO[C@H]1C[C@@H]2CC[C@@H](C)[C@@](O)(O2)C(=O)C(=O)N2CCCC[C@H]2C(=O)O[C@H]([C@H](C)C[C@@H]2CC[C@@H](O)[C@H](OC)C2)C[C@@H](O)[C@H](C)/C=C(\C)[C@@H](O)[C@@H](OC)C(=NOCC(=O)NCCOCCOCCOCCOCCOCCOCCOCCOCCC(=O)NCCS(=O)(=O)c2ccc(C(=O)N3CCOc4ccc(-c5ccc(N)nc5)cc4C3)c(C)c2)[C@H](C)C[C@H](C)/C=C/C=C/C=C/1C [Example 45]	1 to 10 nM	3.16 to 31.6 nM	> 1000 nM
CO[C@H]1C[C@@H]2CC[C@@H](C)[C@@](O)(O2)C(=O)C(=O)N2CCCC[C@H]2C(=O)O[C@H]([C@H](C)C[C@@H]2CC[C@@H](O)[C@H](OC)C2)C[C@@H](O)[C@H](C)/C=C(\C)[C@@H](O)[C@@H](OC)C(=NOCC(=O)NCCOCCOCCOCCOCCOCCOCCOCCOCCC(=O)N2CCc3cc(Cn4nc(-c5ccc6oc(N)nc6c5)c5c(N)ncnc54)ccc3C2)[C@H](C)C[C@H](C)/C=C/C=C/C=C/1C [Example 4]	< 1 nM	3.16 to 31.6 nM	31.6 to 1000 nM
CO[C@H]1C[C@@H]2CC[C@@H](C)[C@@](O)(O2)C(=O)C(=O)N2CCCC[C@H]2C(=O)O[C@H]([C@H](C)C[C@@H]2CC[C@@H](O)[C@H](OC)C2)CC[C@H](C)/C=C(\C)[C@@H](O)[C@@H](OC)C(=NOCC(=O)NCCOCCOCCOCCOCCOCCOCCOCCOCCC(=O)N2CCc3cc(Cn4nc(-c5ccc6oc(N)nc6c5)c5c(N)ncnc54)ccc3C2)[C@H](C)C[C@H](C)/C=C/C=C/C=C/1C [Example 67]	< 1 nM	< 3.16 nM	31.6 to 1000 nM
CO[C@H]1C[C@@H]2CC[C@@H](C)[C@@](O)(O2)C(=O)C(=O)N2CCCC[C@H]2C(=O)O[C@H]([C@H](C)C[C@@H]2CC[C@@H](O)[C@H](OC)C2)C[C@@H](O)[C@H](C)/C=C(\C)[C@@H](O)[C@@H](OC)C(=NOCC(=O)NCCOCCC(=O)N2CCc3nc(N4CCN(c5ncc(C(=O)N6CCc7cc(Cn8nc(-c9ccc%10oc(N)nc%10c9)c9c(N)ncnc98)ccc7C6)cn5)CC4)ncc3C2)[C@H](C)C[C@H](C)/C=C/C=C/C=C/1C [Example 26]	1 to 10 nM	3.16 to 31.6 nM	> 1000 nM
CO[C@H]1C[C@@H]2CC[C@@H](C)[C@@](O)(O2)C(=O)C(=O)N2CCCC[C@H]2C(=O)O[C@H]([C@H](C)C[C@@H]2CC[C@@H](O)[C@H](OC)C2)C[C@@H](O)[C@H](C)/C=C(\C)[C@@H](O)[C@@H](OC)C(=NOCC(=O)N2CCc3nc(N4CCN(c5ncc(C(=O)NCCOCCOCCOCCC(=O)N6CCc7cc(Cn8nc(-c9cnc%10[nH]ccc%10c9)c9c(N)ncnc98)ccc7C6)cn5)CC4)ncc3C2)[C@H](C)C[C@H](C)/C=C/C=C/C=C/1C [Example 19]	1 to 10 nM	3.16 to 31.6 nM	> 1000 nM
CO[C@H]1C[C@@H]2CC[C@@H](C)[C@@](O)(O2)C(=O)C(=O)N2CCCC[C@H]2C(=O)O[C@H]([C@H](C)C[C@@H]2CC[C@@H](O)[C@H](OC)C2)C[C@@H](O)[C@H](C)/C=C(\C)[C@@H](O)[C@@H](OC)C(=NOCC(=O)NCc2cnc(N3CCN(C(=O)CCOCCN4CCN(c5ncc(C(=O)NCCCCn6nc(-c7ccc8oc(N)nc8c7)c7c(N)ncnc76)cn5)CC4)CC3)nc2)[C@H](C)C[C@H](C)/C=C/C=C/C=C/1C [Example 29]	1 to 10 nM	3.16 to 31.6 nM	31.6 to 1000 nM
CO[C@H]1C[C@@H]2CC[C@@H](C)[C@@](O)(O2)C(=O)C(=O)N2CCCC[C@H]2C(=O)O[C@H]([C@H](C)C[C@@H]2CC[C@@H](O)[C@H](OC)C2)C[C@@H](O)[C@H](C)/C=C(\C)[C@@H](O)[C@@H](OC)C(=NOCC(=O)NCCOCCOCCOCCOCCOCCOCCC(=O)NCCCCn2nc(-c3ccc4oc(N)nc4c3)c3c(N)ncnc32)[C@H](C)C[C@H](C)/C=C/C=C/C=C/1C [Example 2]	< 1 nM	3.16 to 31.6 nM	31.6 to 1000 nM
CO[C@H]1C[C@@H]2CC[C@@H](C)[C@@](O)(O2)C(=O)C(=O)N2CCCC[C@H]2C(=O)O[C@H]([C@H](C)C[C@@H]2CC[C@@H](O)[C@H](OC)C2)C[C@@H](O)[C@H](C)/C=C(\C)[C@@H](O)[C@@H](OC)C(=NOCC(=O)N2CCc3nc(N4CCN(C(=O)CCOCCOCCOCCOCCC(=O)NCCCCn5nc(-c6ccc7oc(N)nc7c6)c6c(N)ncnc65)CC4)ncc3C2)[C@H](C)C[C@H](C)/C=C/C=C/C=C/1C [Example 23]	1 to 10 nM	3.16 to 31.6 nM	31.6 to 1000 nM
CO[C@H]1C[C@@H]2CC[C@@H](C)[C@@](O)(O2)C(=O)C(=O)N2CCCC[C@H]2C(=O)O[C@H]([C@H](C)C[C@@H]2CC[C@@H](O)[C@H](OC)C2)C[C@@H](O)[C@H](C)/C=C(\C)[C@@H](O)[C@@H](OC)C(=NOCC(=O)NCc2cnc(N3CCN(C(=O)CCOCCN4CCN(c5ncc(C(=O)N6CCC(n7nc(-c8ccc9oc(N)nc9c8)c8c(N)ncnc87)CC6)cn5)CC4)CC3)nc2)[C@H](C)C[C@H](C)/C=C/C=C/C=C/1C [Example 32]	< 1 nM	3.16 to 31.6 nM	3.16 to 31.6 nM
CO[C@H]1C[C@@H]2CC[C@@H](C)[C@@](O)(O2)C(=O)C(=O)N2CCCC[C@H]2C(=O)O[C@H]([C@H](C)C[C@@H]2CC[C@@H](O)[C@H](OC)C2)C[C@@H](O)[C@H](C)/C=C(\C)[C@@H](O)[C@@H](OC)C(=NOCC(=O)N2CCc3nc(N4CCN(c5ncc(C(=O)NCCOCCC(=O)NCCCCn6nc(-c7ccc8oc(N)nc8c7)c7c(N)ncnc76)cn5)CC4)ncc3C2)[C@H](C)C[C@H](C)/C=C/C=C/C=C/1C [Example 17]	1 to 10 nM	3.16 to 31.6 nM	> 1000 nM
CO[C@H]1C[C@@H]2CC[C@@H](C)[C@@](O)(O2)C(=O)C(=O)N2CCCC[C@H]2C(=O)O[C@H]([C@H](C)C[C@@H]2CC[C@@H](O)[C@H](OC)C2)C[C@@H](O)[C@H](C)/C=C(\C)[C@@H](O)[C@@H](OC)C(=NOCC(=O)N2CCc3nc(N4CCN(c5ncc(C(=O)NCCOCCOCCC(=O)NCCCCn6nc(-c7ccc8oc(N)nc8c7)c7c(N)ncnc76)cn5)CC4)ncc3C2)[C@H](C)C[C@H](C)/C=C/C=C/C=C/1C [Example 16]	1 to 10 nM	3.16 to 31.6 nM	> 1000 nM
